Assays:
Solubility = format: physicochemical; conditions: dans les solvants organiques
From the text: Solubilité : Soluble dans l'eau à 1 %. Insoluble dans les solvants organiques.

[1] = Antioxidant power: peroxide index during oxidation of linoleic acid (method of CARNAT and POURRAT, linoleic acid instead of linseed oil)
Description: La mesure du pouvoir antioxydant est effectuée selon la méthode décrite par CARNAT et POURRAT (Ann. Pharm. Fr. 1979, 37, n° 3-4, p. 119-124) en remplaçant l'huile de lin par de l'acide linoléique. L'oxydation de l'acide linoléique est suivie chaque jour par une mesure de l'indice de péroxyde Ip.
Dans un flacon contenant l'acide linoléique, on ajoute 15 ml de CHCl3, 20 ml d'acide acétique RP puis 1 ml de solution aqueuse saturée de IK. On agite une minute et on laisse reposer le flacon 5 minutes à l'obscurité.
A près voir ajouté 100 ml d'eau, on dose l'iode libéré par du thiosulfate de sodium 0,01 N.

lipase = experiment: Antilipase power: inhibition of hydrolysis of glycerol tributyrate by lipase; format: biochemical; conditions: substrate tributyrate de glycérol
Description: Le milieu d'incubation témoin ne contient que des acides gras estérifiés (tributyrate de glycérol).
L'ajout de lipase dans le milieu entraîne l'hydrolyse du tributyrate de glycérol.
L'incorporation de L-thiazolidine-4 carboxylate de zinc avant l'adjonction de lipase empêche la libération d'acide butyrique. Les résultats obtenus sont regroupés dans le tableau suivant : […]

[2] = Local tolerance on shaved flank; format: in vivo; conditions: 5 cobayes albinos adultes; application three times a week for two weeks on shaved flank
From the text: La tolérance a été recherchée sur 5 cobayes albinos adultes.

With L-thiazolidine-4 carboxylate de zinc the Solubilité (Solubility) was “Insoluble”, the “Indice de péroxydes” value ([1]; Temps 0 h) was 0,91 and the “Indice de péroxydes” value ([1]; Temps 24 h) was 12,7. The “Indice de péroxydes” value ([1]; Temps 48 h) was 25.2, the “% d'inhibition mesuré” value (lipase; 5 mg) was 52% and the “% d'inhibition mesuré” value (lipase; 10 mg) was 71,5%. For the same substance, the Tolérance locale [2] was “aucune réaction”.

Source: patent publication EP0117176A1, “Zinc salt of L-thiazolidine-4-carboxylic acid, its preparation, compositions containing it and its use” (PIERRE FABRE S.A., priority 1983, dated 1984)
